The structures appear in SMILES notation.

In general, IC50 refers to the concentration that inhibits the measured activity by half.

One test relates to IMR-5. The test can be described thus: cells. The test is classed as functional, cell-based, Homo sapiens. The settings on record: Homo sapiens, IMR-5; read-out: IC50.
Description: SANGER: Inhibition of human IMR-5 cell growth in a cell viability assay.
`Cc1cc(N2CCOCC2)cc2[nH]c(-c3c(NC[C@@H](O)c4cccc(Cl)c4)cc[nH]c3=O)nc12`: the IC50 was greater than 5.12 µM.
The same measure, in the same setting: the value for `C=CC(=O)N1CCCC(Nc2nc(Nc3ccc(N(C)C(=O)CC)cc3)nc3[nH]cnc23)C1` (configuration not stated) was greater than 10.2 µM.

A further test deals with LB647-SCLC. The test can be described thus: cells. The settings on record: Homo sapiens, LB647-SCLC. It counts as functional, cell-based, Homo sapiens.
Description: SANGER: Inhibition of human LB647-SCLC cell growth in a cell viability assay.
Regarding `Cc1cc(N2CCOCC2)cc2[nH]c(-c3c(NC[C@@H](O)c4cccc(Cl)c4)cc[nH]c3=O)nc12`, the IC50 is greater than 5.12 µM.
Same read-out and setting: the result for `C=CC(=O)N1CCCC(Nc2nc(Nc3ccc(N(C)C(=O)CC)cc3)nc3[nH]cnc23)C1` (configuration not stated) reads greater than 10.2 µM.

The next test relates to REH. Briefly: cells. The test is classed as functional, cell-based, Homo sapiens. Particulars: Homo sapiens, REH.
Description: SANGER: Inhibition of human REH cell growth in a cell viability assay.
Take `Cc1cc(N2CCOCC2)cc2[nH]c(-c3c(NC[C@@H](O)c4cccc(Cl)c4)cc[nH]c3=O)nc12`: the half-maximal inhibitory concentration (IC50) was greater than 5.12 µM.
In the case of `C=CC(=O)N1CCCC(Nc2nc(Nc3ccc(N(C)C(=O)CC)cc3)nc3[nH]cnc23)C1` (configuration not stated), the IC50 was greater than 10.2 µM.

The next test relates to NB17. Briefly: cells. It counts as functional, cell-based, Homo sapiens. Particulars: Homo sapiens, NB17.
Description: SANGER: Inhibition of human NB17 cell growth in a cell viability assay.
`Cc1cc(N2CCOCC2)cc2[nH]c(-c3c(NC[C@@H](O)c4cccc(Cl)c4)cc[nH]c3=O)nc12` showed a half-maximal inhibitory concentration (IC50) greater than 5.12 µM.
On the same count and under the same terms, the result for `C=CC(=O)N1CCCC(Nc2nc(Nc3ccc(N(C)C(=O)CC)cc3)nc3[nH]cnc23)C1` (configuration not stated) reads greater than 10.2 µM.

A further test relates to LC4-1. Briefly: cells. The test is classed as functional, cell-based, Homo sapiens. The settings on record: Homo sapiens, LC4-1.
Description: SANGER: Inhibition of human LC4-1 cell growth in a cell viability assay.
Consider `Cc1cc(N2CCOCC2)cc2[nH]c(-c3c(NC[C@@H](O)c4cccc(Cl)c4)cc[nH]c3=O)nc12`, for which the IC50 was greater than 5.12 µM.
Still for that read-out and setting: the value for `C=CC(=O)N1CCCC(Nc2nc(Nc3ccc(N(C)C(=O)CC)cc3)nc3[nH]cnc23)C1` (configuration not stated) was greater than 10.2 µM.

Another test has as its system Kasumi 1. Briefly: cells. The test is classed as functional, cell-based, Homo sapiens. The settings on record: Homo sapiens, Kasumi 1.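 Further: growth inhibition of human Kasumi-1 cells, read out by a cell viability assay.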
Description: SANGER: Inhibition of human KASUMI-1 cell growth in a cell viability assay.
Molecule `Cc1cc(N2CCOCC2)cc2[nH]c(-c3c(NC[C@@H](O)c4cccc(Cl)c4)cc[nH]c3=O)nc12` registered an IC50 greater than 5.12 µM.
The molecule `C=CC(=O)N1CCCC(Nc2nc(Nc3ccc(N(C)C(=O)CC)cc3)nc3[nH]cnc23)C1` (configuration not stated) displayed a half-maximal inhibitory concentration (IC50) greater than 10.2 µM.

For the next test, the system named is SU-DHL-1. Briefly: SANGER: Inhibition of human SU-DHL-1 cell growth in a cell viability assay. It counts as functional, cell-based. Particulars: Homo sapiens, SU-DHL-1.
`Cc1cc(N2CCOCC2)cc2[nH]c(-c3c(NC[C@@H](O)c4cccc(Cl)c4)cc[nH]c3=O)nc12` displayed an IC50 greater than 5.12 µM.
The same measure, in the same setting: the value for `C=CC(=O)N1CCCC(Nc2nc(Nc3ccc(N(C)C(=O)CC)cc3)nc3[nH]cnc23)C1` (configuration not stated) was greater than 10.2 µM.

In another test the test system is NB7. The test can be described thus: cells. The test is classed as functional, cell-based, Homo sapiens. Particulars: Homo sapiens, NB7.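 Further: growth inhibition of NB7 cells, read out with a cell viability assay.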
Description: SANGER: Inhibition of human NB7 cell growth in a cell viability assay.
With `Cc1cc(N2CCOCC2)cc2[nH]c(-c3c(NC[C@@H](O)c4cccc(Cl)c4)cc[nH]c3=O)nc12`, the IC50 is greater than 5.12 µM.
The same measure, in the same setting: the value for `C=CC(=O)N1CCCC(Nc2nc(Nc3ccc(N(C)C(=O)CC)cc3)nc3[nH]cnc23)C1` (configuration not stated) was greater than 10.2 µM.

The next test has as its system NB1. Briefly: cells. The test is classed as functional, cell-based, Homo sapiens. The settings on record: Homo sapiens, NB1.
Description: SANGER: Inhibition of human NB1 cell growth in a cell viability assay.
In turn, `Cc1cc(N2CCOCC2)cc2[nH]c(-c3c(NC[C@@H](O)c4cccc(Cl)c4)cc[nH]c3=O)nc12` had an IC50 greater than 5.12 µM.
Same read-out and setting: the result for `C=CC(=O)N1CCCC(Nc2nc(Nc3ccc(N(C)C(=O)CC)cc3)nc3[nH]cnc23)C1` (configuration not stated) reads greater than 10.2 µM.

The test system of a further test is NCI-H748. The test can be described thus: cells. The settings on record: Homo sapiens, NCI-H748. The test is classed as functional, cell-based, Homo sapiens.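 Further: growth inhibition of NCI-H748 cells, measured by a cell viability assay.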
Description: SANGER: Inhibition of human NCI-H748 cell growth in a cell viability assay.
`Cc1cc(N2CCOCC2)cc2[nH]c(-c3c(NC[C@@H](O)c4cccc(Cl)c4)cc[nH]c3=O)nc12` returned a 50% inhibitory concentration (IC50) greater than 5.12 µM.
With `C=CC(=O)N1CCCC(Nc2nc(Nc3ccc(N(C)C(=O)CC)cc3)nc3[nH]cnc23)C1` (configuration not stated), the half-inhibitory concentration (IC50) is greater than 10.2 µM.

A further test has as its system BC-3. Briefly: cells. It counts as functional, cell-based, Homo sapiens. The settings on record: Homo sapiens, BC-3.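 Further: cell viability assay measuring growth inhibition of human BC-3 cells.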
Description: SANGER: Inhibition of human BC-3 cell growth in a cell viability assay.
For the molecule `Cc1cc(N2CCOCC2)cc2[nH]c(-c3c(NC[C@@H](O)c4cccc(Cl)c4)cc[nH]c3=O)nc12`, the half-inhibitory concentration (IC50) is 4.34 µM.
In the case of `C=CC(=O)N1CCCC(Nc2nc(Nc3ccc(N(C)C(=O)CC)cc3)nc3[nH]cnc23)C1` (configuration not stated), inhibition was half-maximal at 9.06 µM (IC50).

The test system of a further test is CESS. The test can be described thus: SANGER: Inhibition of human CESS cell growth in a cell viability assay. It counts as functional, cell-based. The settings on record: Homo sapiens, CESS.
On to `Cc1cc(N2CCOCC2)cc2[nH]c(-c3c(NC[C@@H](O)c4cccc(Cl)c4)cc[nH]c3=O)nc12`, for which the half-maximal inhibitory concentration (IC50) was greater than 5.12 µM.
Still for that read-out and setting: the value for `C=CC(=O)N1CCCC(Nc2nc(Nc3ccc(N(C)C(=O)CC)cc3)nc3[nH]cnc23)C1` (configuration not stated) was greater than 10.2 µM.

In the next test the test system is CPC-N. The test can be described thus: cells. The test is classed as functional, cell-based, Homo sapiens. The settings on record: Homo sapiens, CPC-N.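 Further: growth inhibition of CPC-N cells, with a cell viability assay as the readout.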
Description: SANGER: Inhibition of human CPC-N cell growth in a cell viability assay.
In the case of `Cc1cc(N2CCOCC2)cc2[nH]c(-c3c(NC[C@@H](O)c4cccc(Cl)c4)cc[nH]c3=O)nc12`, the midpoint of inhibition, the IC50, lay at 3.59 µM.
Take `C=CC(=O)N1CCCC(Nc2nc(Nc3ccc(N(C)C(=O)CC)cc3)nc3[nH]cnc23)C1` (configuration not stated): the half-inhibitory concentration (IC50) is greater than 10.2 µM.

The test system of a further test is NCI-H716. Briefly: cells. It counts as functional, cell-based, Homo sapiens. Particulars: Homo sapiens, NCI-H716.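 Further: growth inhibition of human NCI-H716 cells, measured by a cell viability assay.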
Description: SANGER: Inhibition of human NCI-H716 cell growth in a cell viability assay.
Molecule `Cc1cc(N2CCOCC2)cc2[nH]c(-c3c(NC[C@@H](O)c4cccc(Cl)c4)cc[nH]c3=O)nc12` had an IC50 greater than 5.12 µM.
Still for that read-out and setting: the value for `C=CC(=O)N1CCCC(Nc2nc(Nc3ccc(N(C)C(=O)CC)cc3)nc3[nH]cnc23)C1` (configuration not stated) was greater than 10.2 µM.

The test system of a further test is NCI-H1694. Briefly: cells. The test is classed as functional, cell-based, Homo sapiens. Particulars: Homo sapiens, NCI-H1694.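 Further: cell viability assay measuring inhibition of growth in human NCI-H1694 cells.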
Description: SANGER: Inhibition of human NCI-H1694 cell growth in a cell viability assay.
In turn, `Cc1cc(N2CCOCC2)cc2[nH]c(-c3c(NC[C@@H](O)c4cccc(Cl)c4)cc[nH]c3=O)nc12` showed an IC50 greater than 5.12 µM.
In turn, `C=CC(=O)N1CCCC(Nc2nc(Nc3ccc(N(C)C(=O)CC)cc3)nc3[nH]cnc23)C1` (configuration not stated) registered a half-maximal inhibitory concentration (IC50) greater than 10.2 µM.

A further test concerns JIYOYE. Briefly: cells. Particulars: Homo sapiens, JIYOYE. It counts as functional, cell-based, Homo sapiens.
Description: SANGER: Inhibition of human JiyoyeP-2003 cell growth in a cell viability assay.
The molecule `Cc1cc(N2CCOCC2)cc2[nH]c(-c3c(NC[C@@H](O)c4cccc(Cl)c4)cc[nH]c3=O)nc12` showed an IC50 of 5 µM.
Same read-out and setting: the value for `C=CC(=O)N1CCCC(Nc2nc(Nc3ccc(N(C)C(=O)CC)cc3)nc3[nH]cnc23)C1` (configuration not stated) was greater than 10.2 µM.

For a further test, the system named is NCI-H1436. The test can be described thus: cells. Particulars: Homo sapiens, NCI-H1436. The test is classed as functional, cell-based, Homo sapiens.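 Further: growth suppression of human NCI-H1436 cells, determined with a cell viability readout.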
Description: SANGER: Inhibition of human NCI-H1436 cell growth in a cell viability assay.
`Cc1cc(N2CCOCC2)cc2[nH]c(-c3c(NC[C@@H](O)c4cccc(Cl)c4)cc[nH]c3=O)nc12` gave an IC50 greater than 5.12 µM.
For the molecule `C=CC(=O)N1CCCC(Nc2nc(Nc3ccc(N(C)C(=O)CC)cc3)nc3[nH]cnc23)C1` (configuration not stated), the concentration for half-maximal inhibition (IC50) is greater than 10.2 µM.

In a further test the test system is KARPAS-422. The test can be described thus: cells. It counts as functional, cell-based, Homo sapiens. Particulars: Homo sapiens, KARPAS-422.
Description: SANGER: Inhibition of human KARPAS-422 cell growth in a cell viability assay.
In turn, `Cc1cc(N2CCOCC2)cc2[nH]c(-c3c(NC[C@@H](O)c4cccc(Cl)c4)cc[nH]c3=O)nc12` yielded a concentration for half-maximal inhibition (IC50) greater than 5.12 µM.
The same measure, in the same setting: the result for `C=CC(=O)N1CCCC(Nc2nc(Nc3ccc(N(C)C(=O)CC)cc3)nc3[nH]cnc23)C1` (configuration not stated) reads greater than 10.2 µM.

For a further test, the system named is RPMI-6666. The test can be described thus: cells. It counts as functional, cell-based, Homo sapiens. The settings on record: Homo sapiens, RPMI-6666.
Description: SANGER: Inhibition of human RPMI-6666 cell growth in a cell viability assay.
Take `Cc1cc(N2CCOCC2)cc2[nH]c(-c3c(NC[C@@H](O)c4cccc(Cl)c4)cc[nH]c3=O)nc12`: the IC50 worked out at 3.45 µM.
In turn, `C=CC(=O)N1CCCC(Nc2nc(Nc3ccc(N(C)C(=O)CC)cc3)nc3[nH]cnc23)C1` (configuration not stated) came in with an IC50 greater than 10.2 µM.

The next test has as its system EB-3. Briefly: cells. The test is classed as functional, cell-based, Homo sapiens. The settings on record: Homo sapiens, EB-3.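 Further: human EB-3 cells, growth inhibition read out via a cell viability assay.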
Description: SANGER: Inhibition of human EB-3 cell growth in a cell viability assay.
`Cc1cc(N2CCOCC2)cc2[nH]c(-c3c(NC[C@@H](O)c4cccc(Cl)c4)cc[nH]c3=O)nc12` displayed an IC50 greater than 5.12 µM.
As to `C=CC(=O)N1CCCC(Nc2nc(Nc3ccc(N(C)C(=O)CC)cc3)nc3[nH]cnc23)C1` (configuration not stated), the half-inhibitory concentration (IC50) was greater than 10.2 µM.

The test system of a further test is BC1 cell line. The test can be described thus: SANGER: Inhibition of human BC-1 cell growth in a cell viability assay. It counts as functional, cell-based. The settings on record: Homo sapiens, BC1.
Consider `Cc1cc(N2CCOCC2)cc2[nH]c(-c3c(NC[C@@H](O)c4cccc(Cl)c4)cc[nH]c3=O)nc12`, for which the IC50 is greater than 5.12 µM.
`C=CC(=O)N1CCCC(Nc2nc(Nc3ccc(N(C)C(=O)CC)cc3)nc3[nH]cnc23)C1` (configuration not stated) registered a half-inhibitory concentration (IC50) greater than 10.2 µM.

Source of the values: ChEMBL document CHEMBL1201861, “Genomics of Drug Sensitity in Cancer screening data, Wellcome Trust Sanger Institute”.
